Data: patent US7605119B2, “Memory enhancing protein method” (The Research Foundation of State University of New York, priority 2000, dated 2009)
Residues, ends and D or L forms follow the SMILES beside them.

Tests used:
[1] = molecular target: T1, PKMζ (Homo sapiens, UniProt Q05513); experiment: Inhibition of PKMζ (IC50); format: biochemical
T1 construct: made in house; host or cells: Spodoptera frugiperda Sf9 cells, baculovirus
T1 sequence (Q05513 1-409 isoform Q05513-2): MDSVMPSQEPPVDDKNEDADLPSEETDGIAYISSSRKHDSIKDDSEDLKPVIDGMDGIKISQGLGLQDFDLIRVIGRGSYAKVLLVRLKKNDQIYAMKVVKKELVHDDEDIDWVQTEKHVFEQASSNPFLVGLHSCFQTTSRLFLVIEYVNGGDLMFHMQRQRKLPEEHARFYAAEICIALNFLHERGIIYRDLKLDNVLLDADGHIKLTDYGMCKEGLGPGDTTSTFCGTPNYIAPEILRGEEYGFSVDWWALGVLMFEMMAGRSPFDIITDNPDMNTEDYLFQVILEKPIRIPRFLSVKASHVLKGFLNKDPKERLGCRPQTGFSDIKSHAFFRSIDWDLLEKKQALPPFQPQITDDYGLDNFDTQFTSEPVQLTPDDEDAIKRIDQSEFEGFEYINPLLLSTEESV

[2] = molecular target: PKC gamma (Homo sapiens, UniProt P05129); experiment: Inhibition of PKC gamma (IC50); format: biochemical
[3] = tested on: LTP maintenance; experiment: Reversal of LTP maintenance; format: cell-based; conditions: 1 μM
[4] = tested on: AMPA/kainate EPSCs in CA1 pyramidal cells; experiment: Intracellular perfusion of PKMζ into CA1 pyramidal cells, whole-cell recording of evoked EPSCs; format: cell-based, Sprague-Dawley rats
Method: PKMζ, purified from a baculovirus/Sf9 expression system to near homogeneity, was perfused into a CA1 pyramidal cell through a whole cell recording pipette (FIGS. 1A-1B). […] In order to isolate AMPA/kainate responses, the cell, recorded at the soma, was voltage-clamped at the IPSC reversal potential (˜−70) and Cs-gluconate-based electrode solution was used (to block GABAB effects). […] Over 5-10 min, there was ˜60% increase in AMPA/kainate EPSCs, which then stabilized. In contrast, inactivated PKMζ had no effect.
Hippocampal slices were prepared from Sprague-Dawley rats as described in Example 2. Patch electrodes were pulled (two-stage) from […] O.D. borosilicate glass (World Precision Instruments, Sarasota, Fla.) on a Narishige PP-83 vertical puller. Recording pipettes had tip resistances of 2-5 MΩ and contain (in mM): Cs-gluconate or K-gluconate 130-; MgCl2, 2; CaCl2, 2; EGTA, 10; HEPES, 10; Na-ATP, 2; pH adjusted to 7.25 with either CsOH or KOH. […] Cesium was used to block potassium currents, including slow GABAB IPSCs. Electrode solutions included QX-314 (10 mM) to block […] currents to prevent cell spike discharges at depolarized holding potentials. Whole-cell recordings were obtained from CA1 pyramidal cells using blind patch techniques. The recording pipette was slowly advanced through the tissue, with brief voltage steps (−10 mV, 10 ms) applied to monitor electrode resistance. Once a deflection in the electrode's current response was detected signifying contact with the membrane of the target cell soma, slight negative pressure was applied to form a cell-electrode seal of >1 GΩ.
Membrane breakthrough was accomplished with either additional suction or current pulses. […] Signals were recorded under voltage-clamp with an Axoclamp 2A amplifier (Axon Instruments, Foster City, Calif.). Resting input resistance was measured from the current response to a −10 mV voltage step from holding potential. […]
The effects of PKMζ cell injection on excitatory synaptic currents were assessed by including the kinase in the whole-cell pipette and measuring EPSC amplitude over time. […]

[5] = molecular target: T1, PKMζ; experiment: Inhibition of phosphorylation of exogenous substrates by various protein kinases (specificity of chelerythrine); format: biochemical; conditions: versus PKC alpha, PKC epsilon (MBP substrate), CaM-kinase II (Syntide)
From the text: PKCA is PKC alpha phosphorylation of myelin basic protein (MBP). PKCE is PKC epsilon phosphorylation of MBP. PKM is PKMζ phosphorylation of MBP. CKII is Ca^2+-calmodulin-dependent protein kinase II phosphorylation of Syntide® (Calbiochem, San Diego, Calif.) peptide substrate.

For CCCCCCCCCCCCCC(=O)N[C@@H](CO)C(=O)N[C@H](C(=O)N[C@@H](Cc1ccc(O)cc1)C(=O)N[C@@H](CCCNC(=N)N)C(=O)N[C@@H](CCCNC(=N)N)C(=O)NCC(=O)N[C@@H](C)C(=O)N[C@@H](CCCNC(=N)N)C(=O)N[C@@H](CCCNC(=N)N)C(=O)N[C@@H](Cc1c[nH]c2ccccc12)C(=O)N[C@@H](CCCNC(=N)N)C(=O)N[C@@H](CCCCN)C(=O)N[C@@H](CC(C)C)C(=O)O)[C@@H](C)CC [MZIP, myr-Ser-Ile-Tyr-Arg-Arg-Gly-Ala-Arg-Arg-Trp-Arg-Lys-Leu-OH] (HELM PEPTIDE1{[CCCCCCCCCCCCCC(=O)[*:2]].S.I.Y.R.R.G.A.R.R.W.R.K.L}$$$$V2.0), the IC50 [1] was 10 to 100 nM, the IC50 [2] was 10 µM and the “effect on LTP maintenance” value [3] was “reverses LTP maintenance”.

For COc1ccc2c(c[n+](C)c3c4cc5c(cc4ccc23)OCO5)c1OC [chelerythrine], the “reversal of PKMζ-induced increases in synaptically evoked AMPA/kainate responses” value ([4]; 3 nM PKM in pipette, chelerythrine 1 uM in bath) was “reversible” and the “selectivity as an inhibitor of PKM activity relative to other protein kinases” value [5] was “greater than 10 fold”.

“PKMζ: independent catalytic domain of the PKCζ isoform, purified from a baculovirus/Sf9 expression system” was tested, and the “increase in AMPA/kainate EPSCs” value ([4]; about 0.8 nM PKMζ in whole cell pipette, over 5-10 min, then stabilized, voltage-clamped ~-70) was roughly 60% and the “potency in potentiation of AMPA/kainate currents relative to CaM-kinase II” value ([4]; compared with reported concentration of autoactive thiophosphorylated CaM-kinase II) was 200- to 1000 fold.
